Earlier results, collected in patent US20200188326A1, “COMPOSITIONS AND METHODS OF TREATMENT FOR MVID AND RELATED DISEASES” (Vanessa Research, Inc., priority 2015, published 2020).

Tested on: SLC26A3 exchanger
Conditions: in the intestine

Vitamin A
upregulation of the expression of SLC26A3 exchanger: up to 4 fold
